From patent publication US20240116857A1 (St. Louis University, priority 2022, published 2024) come the findings set out here.

Read-outs that look alike come from different tables or passages of the source. A value given as a limit tells only on which side of the number the result lay.

By CC50 is commonly meant the concentration at which the toxic effect on the cells reaches its halfway point. Broadly, the MIC is the lowest concentration that inhibits growth of the organism.

Data set [1] is described as follows: Cytotoxicity assay (CellTiter AQueous One Solution, MTS). The data set is classed as cell-based. As to conditions: human, HEK293 cells, 24 h incubation. The procedure:
Cytotoxicity of the compounds was evaluated using the CellTiter AQueous One Solution Cell Proliferation Assay (MTS; Promega) as previously described (2). HEK293 cells were incubated with a 2-fold serially diluted compounds for 24 h at 37° C. with 5% CO2, followed by addition of 20 μL of CellTiter AQueous and further incubated for 4 h at 37° C. The absorbance at 490 nm was recorded using a Tecan Spark 10 M plate reader. All measurements were done in three replicas. The growth curves were then fitted to a sigmoidal equation to determine the cytotoxicity concentration CC50.

A further data set has as its system E. coli BW25113. Nature of the data set: MIC, 2-fold broth dilution, E. coli BW25113. It counts as cell-based, Escherichia coli. Conditions: E. coli BW25113; for MIC: Escherichia coli.
Setting [2] is: asterisk in column 10-50, read-out: MIC, μM 10-50.
Where [3] appears, read: asterisk in column 1-10, read-out: MIC, μM 1-10.
The mark [4] stands for this setting: asterisk in column >50, read-out: MIC, μM >50.

For the compound `C[n+]1ccc(Nc2ccc(NC(=O)c3ccc(C(=O)Nc4ccc(Nc5cc[n+](C)cc5)cc4)c(C(F)(F)F)c3)cc2)cc1` [Example 47], in data set [1], the cytotoxic concentration (CC50) at 24 h is 350 µM. Moreover, in the data set on E. coli BW25113 (setting [2]), the MIC was in the range of 10 to 50 µM.
With `COc1cc(NC(=O)c2ccc(-c3ccc(C(=O)Nc4ccc([N+](C)(C)C)c(OC)c4)cc3)cc2)ccc1[N+](C)(C)C` [Example 35, 4,4′-(([1,1′-biphenyl]-4,4′-dicarbonyl)bis(azanediyl))bis(2-methoxy-N,N,N-trimethylbenzenaminium)], in data set [1], the half-maximal cytotoxic concentration (CC50) at 24 h came out at 650 µM. Further, the MIC in the data set on E. coli BW25113 (setting [2]) was 10 to 50 µM.
For the compound `C[n+]1ccc(Nc2ccc(NC(=O)c3ccc(C(=O)Nc4ccc(Nc5cc[n+](C)cc5)cc4)c([N+](=O)[O-])c3)cc2)cc1` [Example 25, 4,4′-((((2-nitroterephthaloyl)bis(azanediyl))bis(4,1-phenylene))bis(azanediyl))bis(1-methylpyridin-1-ium)], in data set [1], the midpoint of cytotoxicity, the CC50 at 24 h, lay at 350 µM. In addition, the minimal inhibitory concentration (MIC) in the data set on E. coli BW25113 (setting [3]) was 1 to 10 µM.
On to `C[n+]1ccc(Nc2ccc(NC(=O)c3ccc(C(=O)Nc4ccc(Nc5cc[n+](C)cc5)cc4)c(N)c3)cc2)cc1` [Example 30, 4,4′-((((2-aminoterephthaloyl)bis(azanediyl))bis(4,1-phenylene))bis(azanediyl))bis(1-methylpyridin-1-ium)], for which the CC50 at 24 h in data set [1] is 480 µM. In the data set on E. coli BW25113 (setting [3]), the MIC lay within 1 to 10 µM.
As to `CN(C)c1ccc(NC(=O)c2ccc(-c3ccc(C(=O)Nc4ccc(N(C)C)cc4)cn3)nc2)cc1` [Example 72, N^5,N^5′-bis(4-(dimethylamino)phenyl)-[2,2′-bipyridine]-5,5′-dicarboxamide], in the data set on E. coli BW25113 (setting [4]), the minimal inhibitory concentration (MIC) is above 50 µM.
As to `Cc1cc(C(=O)Nc2ccc([N+](C)(C)C)c(F)c2)ccc1-c1ccc(C(=O)Nc2ccc([N+](C)(C)C)c(F)c2)cc1` [Example 91, 4,4′-((2-methyl-[1,1′-biphenyl]-4,4′-dicarbonyl)bis(azanediyl))bis(2-fluoro-N,N,N-trimethylbenzenaminium)], the MIC with E. coli BW25113 (setting [4]) is above 50 µM.
Regarding `C[N+](C)(C)c1ccc(NC(=O)c2ccc(Cc3ccc(C(=O)Nc4ccc([N+](C)(C)C)cc4)cc3)cc2)cc1` [Example 53], the MIC in the data set with E. coli BW25113 (setting [4]) is above 50 µM.
Consider `C[N+](C)(C)c1ccc(NC(=O)c2ccc(-c3ccc(C(=O)Nc4ccc([N+](C)(C)CCCCc5cn(CCOCCOCCOCCNC(=O)CCCC[C@@H]6SC[C@@H]7NC(=O)N[C@@H]76)nn5)c(F)c4)cc3)cc2)cc1F` [Example 132], for which the minimal inhibitory concentration (MIC) with E. coli BW25113 (setting [4]) was above 50 µM.
As to `C[N+](C)(C)c1ccc(NC(=O)c2ccc(-c3ccc(C(=O)Nc4ccc([N+]5(C)CCCCC5)cc4)cc3)cc2)cc1` [Example 144], the MIC in the data set with E. coli BW25113 (setting [4]) was above 50 µM.
For `C[n+]1ccc(Nc2ccc(NC(=O)c3ccc(C(=O)Nc4ccc(Nc5cc[n+](C)cc5)cc4)c(F)c3)cc2)cc1` [Example 58, 4,4′-((((2-fluoroterephthaloyl)bis(azanediyl))bis(4,1-phenylene))bis(azanediyl))bis(1-methylpyridin-1-ium)], in the data set with E. coli BW25113 (setting [3]), the MIC fell in the range of 1 to 10 µM.
For the compound `CN(C)c1ccc(NC(=O)c2ccc(-c3ccc(C(=O)Nc4ccc(N(C)C)c(F)c4)cc3C(F)(F)F)cc2)cc1F` [Example 114], the MIC with E. coli BW25113 (setting [4]) was above 50 µM.
Turning to `O=C(Nc1ccc(Nc2ccncc2)cc1)c1ccc(C(=O)Nc2ccc(Nc3ccncc3)cc2)c(Cl)c1` [Example 19, 2-chloro-N^1,N^4-bis(4-(pyridin-4-ylamino)phenyl)terephthalamide], the minimum inhibitory concentration (MIC) in the data set with E. coli BW25113 (setting [4]) is above 50 µM.
As to `C[N+](C)(C)c1ccc(NC(=O)c2ccc(-c3ccc(C(=O)Nc4ccc([N+](C)(C)C)c([N+](=O)[O-])c4)cc3)c(S(C)(=O)=O)c2)cc1` [Example 146], the minimum inhibitory concentration (MIC) in the data set on E. coli BW25113 (setting [4]) is above 50 µM.
Same read-out and setting: with `CN(C)c1ccc(NC(=O)c2ccc(-c3ccc(C(=O)Nc4ccc(N(C)C)c(Cl)c4)cc3)cc2)cc1F` [Example 115] the figure was above 50 µM; with `C[N+](C)(C)C1CCC(NC(=O)c2ccc(-c3ccc(C(=O)NC4CCC([N+](C)(C)C)CC4)cc3)cc2)CC1` (stereo not shown) [Example 61, 4,4′-(([1,1′-biphenyl]-4,4′-dicarbonyl)bis(azanediyl))bis(N,N,N-trimethylcyclohexan-1-aminium)], above 50 µM.
The same measure, in the same setting: then `C[N+](C)(C)c1ccc(NC(=O)c2ccc(-c3ccc(C(=O)Nc4ccc([N+](C)(C)C)c(OCCCc5cn(CCOCCOCCOCCNC(=O)CCCC[C@@H]6SC[C@@H]7NC(=O)N[C@@H]76)nn5)c4)cc3)cc2)cc1F` [Example 137], with above 50 µM.
As to “4,4′-(([1,1′-biphenyl]-4,4′-dicarbonyl)bis(azanediyl))bis(3-hydroxy-N,N,N-trimethylbenzenaminium) [Example 57]”, the “MIC, μM >50” value against E. coli BW25113 (asterisk in column >50) is recorded as “* (>50)”.
For `CN(C)c1ccc(NC(=O)c2ccc(-c3ccc(C(=O)Nc4ccc(N(C)C)c(C(F)(F)F)c4)cc3)cc2)cc1C(F)(F)F` [Example 74, N^4,N^4′-bis(4-(dimethylamino)-3-(trifluoromethyl)phenyl)-[1,1′-biphenyl]-4,4′-dicarboxamide], in the data set on E. coli BW25113 (setting [4]), the minimal inhibitory concentration (MIC) was above 50 µM.
As to `C#CCCCN(C)c1ccc(NC(=O)c2ccc(-c3ccc(C(=O)Nc4ccc(N(C)C)c(F)c4)cc3)cc2)cc1F` [Example 124], the minimum inhibitory concentration (MIC) in the data set with E. coli BW25113 (setting [4]) was above 50 µM.
For the compound `O=C(Nc1ccc(Nc2ccncc2)cc1)c1ccc(C(=O)Nc2ccc(Nc3ccncc3)cc2)c([N+](=O)[O-])c1` [Example 24, 2-nitro-N^1,N^4-bis(4-(pyridin-4-ylamino)phenyl)terephthalamide], the minimal inhibitory concentration (MIC) in the data set on E. coli BW25113 (setting [4]) was above 50 µM.
As to `C#CCCCC[N+](C)(C)c1ccc(NC(=O)c2ccc(-c3ccc(C(=O)Nc4ccc([N+](C)(C)C)c(F)c4)cc3)cc2)cc1F` [Example 121], the MIC with E. coli BW25113 (setting [4]) was above 50 µM.
`C[N+](C)(C)c1ccc(NC(=O)c2ccc(-c3ccc(C(=O)Nc4ccc([N+](C)(C)C)c(OCCc5cn(CCOCCOCCOCCNC(=O)CCCC[C@@H]6SC[C@@H]7NC(=O)N[C@@H]76)nn5)c4)cc3)cc2)cc1F` [Example 138]: in the data set on E. coli BW25113 (setting [4]), the minimal inhibitory concentration (MIC) was above 50 µM.
With `C[N+](C)(C)c1ccc(NC(=O)c2ccc(-c3ccc(C(=O)Nc4ccc([N+](C)(C)C)c(Cl)c4)cc3)cc2)cc1Cl` [Example 39, 4,4′-(([1,1′-biphenyl]-4,4′-dicarbonyl)bis(azanediyl))bis(2-chloro-N,N,N-trimethylbenzenaminium)], the CC50 at 24 h in data set [1] is 330 µM. Also, the minimal inhibitory concentration (MIC) in the data set with E. coli BW25113 (setting [3]) lay in the range of 1 to 10 µM.
